Numbered stars: 1 amine (or outer) side, 2 acyl side, 3 side chain; on linkers, the order of the positions; unused ones are H or OH. Bridge positions count the residues as written; N and C are the ends. Square brackets hold non-standard residues; d marks the D form. Peptide text beside a SMILES is read from it. * marks the point of attachment. hPhe(3,5-F2-4-CF3) = N[C@@H](CCc1cc(F)c(C(F)(F)F)c(F)c1)C(=O)O; hPhe(3-Cl-4-CF3) = N[C@@H](CCc1ccc(C(F)(F)F)c(Cl)c1)C(=O)O; hPhe(3-F,4-CF3) = N[C@@H](CCc1ccc(C(F)(F)F)c(F)c1)C(=O)O; NMePhe(4-CF3) = CN[C@@H](Cc1ccc(C(F)(F)F)cc1)C(=O)O; NMeAbu(4,4,4-F3) = CN[C@@H](CC(F)(F)F)C(=O)O; NMePhe(4-Cl) = CN[C@@H](Cc1ccc(Cl)cc1)C(=O)O; NMePhe(4-Me) = CN[C@@H](Cc1ccc(C)cc1)C(=O)O; NMePhe(4-F) = CN[C@@H](Cc1ccc(F)cc1)C(=O)O; X79 = O=C([C@H](Cc1ccc(Cl)s1)N[*:1])[*:2]; NMeGly(cPent) = CN[C@H](C(=O)O)C1CCCC1; Phe(3-I) = N[C@@H](Cc1cccc(I)c1)C(=O)O; Pro(4,4-F2) = O=C(O)[C@@H]1CC(F)(F)CN1; NMeCha = CN[C@@H](CC1CCCCC1)C(=O)O; Hyp = O=C(O)[C@@H]1C[C@@H](O)CN1; NEtLeu = CCN[C@@H](CC(C)C)C(=O)O; NMeChg = CN[C@H](C(=O)O)C1CCCCC1; NMeI = CC[C@H](C)[C@H](NC)C(=O)O; NMeD = CN[C@@H](CC(=O)O)C(=O)O; NMeL = CN[C@@H](CC(C)C)C(=O)O; NMeV = CN[C@H](C(=O)O)C(C)C; d(β3hA) = C[C@@H](N)CC(=O)O; Morpholide = C1CN(*)CCO1; NMeA = CN[C@@H](C)C(=O)O; NMeAib = CNC(C)(C)C(=O)O; Nle = CCCC[C@H](N)C(=O)O; Piperidide = C1CCN(*)CC1; Pra = C#CC[C@H](N)C(=O)O; Pyrrolidide = C1CCN(*)C1; Ac5c = NC1(C(=O)O)CCCC1; Aze = O=C(O)[C@@H]1CCN1; Sar = CNCC(=O)O
Tested on: Human pancreatic cancer cell line AsPC-1 (G12D mutation Kras)
Assay: AsPC-1 cell growth inhibition (AsPC-1 CGI)
Assay type: cell-based
Conditions: read-out: AsPC-1 cell growth inhibition, 50% growth inhibitory concentration (IC50 value); 96 hours, CellTiter-Glo, values classified in ranges
Protocol: Test compounds were serially dilated with dimethyl sulfoxide, and 200 nL was then dispensed to a U-bottom 96-well plate using Labcyte Echo. […] The cell suspension was dispensed to a. plate containing a test compound at 100 μL per well and incubated at 37° C. in a 5% carbon dioxide gas incubator. 96 hours later, 80 μL of CellTiter-Glo (Promega) was added to each well and fluorescence was measured.

Going from CC[C@H](C)[C@@H]1NC(=O)[C@H](CC(C)C)N(C)C(=O)C[C@@H](C(=O)N2CCCCC2)N(C)C(=O)[C@H](C(C)C)N(C)C(=O)C2(CCCC2)NC(=O)[C@H](C)NC(=O)[C@H](CCc2ccc(C(F)(F)F)c(Cl)c2)NC(=O)CN(C)C(=O)[C@H](CC2CCCCC2)N(C)C(=O)[C@@H]2CCN2C(=O)[C@H](C)N(C)C1=O [Compound 1316] ([NMeL]I[NMeA][Aze][NMeCha][Sar][hPhe(3-Cl-4-CF3)]A[Ac5c][NMeV][NMeD]-Piperidide; lactam N-11) to CC[C@H](C)[C@@H]1NC(=O)[C@H](CC(C)C)N(CC)C(=O)C[C@@H](C(=O)N(C)C)N(C)C(=O)[C@H](C2CCCC2)N(C)C(=O)C2(CCCC2)NC(=O)[C@@H]2CCCN2C(=O)[C@H](CCc2ccc(C(F)(F)F)c(F)c2)NC(=O)CN(C)C(=O)[C@H](CC2CCCCC2)N(C)C(=O)[C@@H]2CCN2C(=O)[C@H](C)N(C)C1=O [Compound 1324] ([NEtLeu]I[NMeA][Aze][NMeCha][Sar][hPhe(3-F,4-CF3)]P[Ac5c][NMeGly(cPent)][NMeD]-NMe2; lactam N-11), the IC50 falls from over 500 nM to at most 20 nM.

CC[C@H](C)[C@@H]1NC(=O)[C@H](CC(F)(F)F)N(C)C(=O)C[C@@H](C(=O)N2CCCC2)N(C)C(=O)[C@H](C2CCCCC2)N(C)C(=O)C2(CCCC2)NC(=O)[C@@H]2CC(F)(F)CN2C(=O)[C@H](CCc2cc(F)c(C(F)(F)F)c(F)c2)NC(=O)CN(C)C(=O)[C@H](Cc2ccc(C)cc2)N(C)C(=O)CN(C)C(=O)CN(C)C1=O [Compound 1317] ([NMeAbu(4,4,4-F3)]I[Sar][Sar][NMePhe(4-Me)][Sar][hPhe(3,5-F2-4-CF3)][Pro(4,4-F2)][Ac5c][NMeChg][NMeD]-Pyrrolidide; lactam N-11) and CC[C@H](C)[C@@H]1NC(=O)[C@H](CC(C)C)N(C)C(=O)C[C@@H](C(=O)N2CCOCC2)N(C)C(=O)[C@H](C2CCCCC2)N(C)C(=O)C2(CCCC2)NC(=O)[C@@H]2CC(F)(F)CN2C(=O)[C@H](CCc2cc(F)c(C(F)(F)F)c(F)c2)NC(=O)CN(C)C(=O)[C@H](CC2CCCCC2)N(C)C(=O)CN(C)C(=O)CN(C)C1=O [Compound 1337] ([NMeL]I[Sar][Sar][NMeCha][Sar][hPhe(3,5-F2-4-CF3)][Pro(4,4-F2)][Ac5c][NMeChg][NMeD]-Morpholide; lactam N-11) cannot be ordered by IC50: at most 20 nM for the first, at most 20 nM for the second.

CCCC[C@@H]1NC(=O)[C@H](Cc2ccc(Cl)s2)NC(=O)CN(C)C(=O)[C@H](Cc2ccc(Cl)cc2)N(C)C(=O)CN(C)C(=O)CN(C)C(=O)[C@H]([C@@H](C)CC)NC(=O)[C@H](CC(C)C)N(C)C(=O)C[C@@H](C(=O)N2CCCCC2)N(C)C(=O)[C@H](CC(C)C)NC(=O)C(C)(C)N(C)C1=O [Compound 1318] ([NMeL]I[Sar][Sar][NMePhe(4-Cl)][Sar][X79][Nle][NMeAib]L[NMeD]-Piperidide; lactam N-11) and C#CC[C@@H]1NC(=O)[C@H](Cc2cccc(I)c2)NC(=O)CN(C)C(=O)[C@H](Cc2ccc(F)cc2)N(C)C(=O)CN(C)C(=O)CN(C)C(=O)[C@H]([C@@H](C)CC)NC(=O)[C@H](CC(C)C)N(C)C(=O)C[C@@H](C(=O)N2CCCCC2)N(C)C(=O)[C@H](CC(C)C)NC(=O)C(C)(C)N(C)C1=O [Compound 1327] ([NMeL]I[Sar][Sar][NMePhe(4-F)][Sar][Phe(3-I)][Pra][NMeAib]L[NMeD]-Piperidide; lactam N-11) cannot be ordered by IC50: over 500 nM for the first, over 500 nM for the second.

Going from CC[C@H](C)[C@@H]1NC(=O)[C@H](CC(C)C)N(C)C(=O)C[C@@H](C)NC(=O)[C@H](C2CCCC2)N(C)C(=O)C2(CCCC2)NC(=O)[C@@H](C)NC(=O)[C@H](CCc2ccc(C(F)(F)F)c(Cl)c2)NC(=O)CN(C)C(=O)[C@H](Cc2ccc(C)cc2)N(C)C(=O)[C@@H]2CCN2C(=O)[C@H](C)N(C)C1=O [Compound 1328] (cyclo([Ac5c][NMeGly(cPent)][d(β3hA)][NMeL]I[NMeA][Aze][NMePhe(4-Me)][Sar][hPhe(3-Cl-4-CF3)][dA])) to CCO[C@@H]1C[C@H]2C(=O)NC3(CCCC3)C(=O)N(C)[C@@H]([C@@H](C)CC)C(=O)N(C)[C@H](C(=O)N3CCOCC3)CC(=O)N(C)[C@@H](CC(C)C)C(=O)N[C@@H]([C@@H](C)CC)C(=O)N(C)[C@@H](C)C(=O)N3CC[C@H]3C(=O)N(C)[C@@H](Cc3ccc(C(F)(F)F)cc3)C(=O)N(C)CC(=O)N[C@@H](CCc3ccc(C(F)(F)F)c(Cl)c3)C(=O)N2C1 [Compound 1330] ([NMeL]I[NMeA][Aze][NMePhe(4-CF3)][Sar][hPhe(3-Cl-4-CF3)][Hyp](Et)[Ac5c][NMeI][NMeD]-Morpholide; lactam N-11), the IC50 falls from over 500 nM to at most 20 nM. The second is the more potent here.

Work on CC[C@H](C)[C@@H]1NC(=O)[C@H](CC(C)C)N(C)C(=O)C[C@@H](C(=O)N2CCOCC2)N(C)C(=O)[C@H](C2CCCCC2)N(C)C(=O)C2(CCCC2)NC(=O)[C@@H]2CCCN2C(=O)[C@H](CCc2ccc(C(F)(F)F)c(Cl)c2)NC(=O)CN(C)C(=O)[C@H](CC2CCCCC2)N(C)C(=O)CN(C)C(=O)CN(C)C1=O [Compound 1333] ([NMeL]I[Sar][Sar][NMeCha][Sar][hPhe(3-Cl-4-CF3)]P[Ac5c][NMeChg][NMeD]-Morpholide; lactam N-11) yielded an IC50 of at most 20 nM.

Reference: US20240148821A1, “PHARMACEUTICAL USE OF CYCLIC PEPTIDE COMPOUND” (CHUGAI SEIYAKU KABUSHIKI KAISHA, priority 2021, published 2024)
